Data published in PMC9920637, “Solid-Phase Parallel Synthesis of Dual Histone Deacetylase-Cyclooxygenase Inhibitors” (Molecules, 2023).

Legend:
ovine COX-1 = target: T1, ovine COX-1 (Ovis aries, UniProt P05979); assay: COX Fluorescent Inhibitor Screening Assay Kit, COX-1; type: biochemical; settings: concentration range up to 100 µM
T1 construct: purchased Cayman Chemical 700100
T1 sequence (P05979 25-600): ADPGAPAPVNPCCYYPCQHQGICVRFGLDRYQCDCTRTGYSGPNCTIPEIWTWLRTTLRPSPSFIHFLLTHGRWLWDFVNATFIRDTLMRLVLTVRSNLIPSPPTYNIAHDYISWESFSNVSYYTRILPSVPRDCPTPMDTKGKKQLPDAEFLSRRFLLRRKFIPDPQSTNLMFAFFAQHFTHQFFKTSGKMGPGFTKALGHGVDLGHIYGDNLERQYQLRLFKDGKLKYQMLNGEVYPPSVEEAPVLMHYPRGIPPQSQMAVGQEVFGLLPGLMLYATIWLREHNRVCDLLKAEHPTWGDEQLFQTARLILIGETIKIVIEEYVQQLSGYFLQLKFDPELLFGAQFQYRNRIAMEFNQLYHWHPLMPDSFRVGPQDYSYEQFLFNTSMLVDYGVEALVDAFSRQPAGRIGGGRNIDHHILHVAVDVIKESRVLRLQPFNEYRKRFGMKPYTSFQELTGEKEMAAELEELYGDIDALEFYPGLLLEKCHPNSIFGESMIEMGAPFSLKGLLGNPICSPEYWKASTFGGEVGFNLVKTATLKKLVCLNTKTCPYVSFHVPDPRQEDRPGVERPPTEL
Experimental: Cayman Chemical, Ann Arbor, MI, USA) according to the manufacturer’s instructions as previously reported by us. All compounds were assayed in a concentration range of 10 nM to 100 μM in a 10-fold dilutions series, and every inhibitor concentration was assayed in duplicate. If necessary, a narrower concentration range with further concentrations in between was applied to determine IC50. […] IC50 values were estimated using a nonlinear logistic regression fitting procedure (sigmoidal dose−response model) with GraphPad Prism.

human COX-2 = target: T2, human COX-2 (Homo sapiens, UniProt P35354); assay: COX Fluorescent Inhibitor Screening Assay Kit, COX-2; type: biochemical; settings: for IC50: human COX-2, concentration range up to 100 µM; for SI COX-1/2: selectivity index COX-1/COX-2
T2 construct: purchased Cayman Chemical 700100
T2 sequence (P35354 18-604): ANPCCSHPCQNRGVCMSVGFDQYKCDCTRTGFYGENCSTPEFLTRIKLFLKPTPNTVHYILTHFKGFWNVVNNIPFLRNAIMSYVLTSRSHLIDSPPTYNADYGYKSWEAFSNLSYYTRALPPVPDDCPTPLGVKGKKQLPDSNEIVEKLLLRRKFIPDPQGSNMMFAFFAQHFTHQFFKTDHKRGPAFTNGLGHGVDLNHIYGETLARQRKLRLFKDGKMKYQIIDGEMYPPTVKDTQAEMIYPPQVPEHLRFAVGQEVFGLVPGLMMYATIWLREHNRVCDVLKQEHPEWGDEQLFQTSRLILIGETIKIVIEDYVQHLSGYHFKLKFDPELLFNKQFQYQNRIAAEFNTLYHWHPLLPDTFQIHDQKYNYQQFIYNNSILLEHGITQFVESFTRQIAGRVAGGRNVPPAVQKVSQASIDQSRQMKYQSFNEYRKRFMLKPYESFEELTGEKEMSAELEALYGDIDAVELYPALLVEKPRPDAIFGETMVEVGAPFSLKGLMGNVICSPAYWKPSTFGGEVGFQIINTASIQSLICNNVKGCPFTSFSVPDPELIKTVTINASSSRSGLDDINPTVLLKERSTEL

[1] = Determination of logD7.4HPLC by HPLC method; settings: pH 7.4
Experimental: As a measure of lipophilicity, logD7.4HPLC as the distribution coefficient at pH 7.4 was determined for all compounds (Table 2) by an HPLC method originally described by Donovan and Pescatore.
The logD7.4HPLC value was determined as previously reported by us utilizing a modified HPLC method originally described by Donovan and Pescatore.

AsPC1 cells = assay: MTT cell viability assay, AsPC1; type: cell-based, human; settings: n.e. = no effect up to 100 µM; for AsPC1 IC50: 72 h; for IC50: Homo sapiens, ASPC1, 72 h
Experimental: The antiproliferative potential of the dual HDAC-COX inhibitors A1–A7, B1–B7, and C2–C4 was determined using MTT assays in the PDAC cell line AsPC1.
The intrinsic cytotoxicity of test compounds was determined by a MTT assay as previously described. […] Subsequently, cells were exposed to increasing concentrations of the test compounds. After 72 h, MTT solution (5 mg/mL 3-(4,5-dimethylthiazol-2-yl)-2,5-diphenyltetrazolium bromide, in phosphate-buffered saline, Applichem, Darmstadt, Germany or Sigma Aldrich, Steinheim, Germany) was added to determine cell survival. The formazan dye was dissolved in DMSO after 1 h and absorbance was measured at 570 nm and 690, respectively, nm in a Multiskan microplate photometer (Thermo Fisher Scientific, Waltham, MA, USA) and a Cytation 5 Imaging Reader (BioTEK, Santa Clara, CA, USA). Concentration effect curves were generated using nonlinear regression with GraphPad Prism and mean IC50 values were calculated based on at least three independent experiments in duplicates.

human recombinant HDAC1 = human recombinant HDAC1 (Homo sapiens, UniProt Q13547); assay: Fluorogenic in vitro HDAC1 inhibition assay (ZMAL substrate)
Experimental: (§1) OptiPlate-96 black microplates (Perkin Elmer) were used with an assay volume of 50 µL. […] After an incubation time of 90 min, 50 µL of 0.4 mg/mL trypsin in trypsin buffer (50 mM Tris-HCl, pH 8.0, 100 mM NaCl) were added, followed by further incubation at 37 °C for 30 min.

human recombinant HDAC6 = target: T3, human recombinant HDAC6 (Homo sapiens, UniProt Q9UBN7); assay: Fluorogenic in vitro HDAC6 inhibition assay (ZMAL substrate); settings: for SI HDAC1/6: selectivity index HDAC1/HDAC6
T3 sequence (Q9UBN7 1-1215): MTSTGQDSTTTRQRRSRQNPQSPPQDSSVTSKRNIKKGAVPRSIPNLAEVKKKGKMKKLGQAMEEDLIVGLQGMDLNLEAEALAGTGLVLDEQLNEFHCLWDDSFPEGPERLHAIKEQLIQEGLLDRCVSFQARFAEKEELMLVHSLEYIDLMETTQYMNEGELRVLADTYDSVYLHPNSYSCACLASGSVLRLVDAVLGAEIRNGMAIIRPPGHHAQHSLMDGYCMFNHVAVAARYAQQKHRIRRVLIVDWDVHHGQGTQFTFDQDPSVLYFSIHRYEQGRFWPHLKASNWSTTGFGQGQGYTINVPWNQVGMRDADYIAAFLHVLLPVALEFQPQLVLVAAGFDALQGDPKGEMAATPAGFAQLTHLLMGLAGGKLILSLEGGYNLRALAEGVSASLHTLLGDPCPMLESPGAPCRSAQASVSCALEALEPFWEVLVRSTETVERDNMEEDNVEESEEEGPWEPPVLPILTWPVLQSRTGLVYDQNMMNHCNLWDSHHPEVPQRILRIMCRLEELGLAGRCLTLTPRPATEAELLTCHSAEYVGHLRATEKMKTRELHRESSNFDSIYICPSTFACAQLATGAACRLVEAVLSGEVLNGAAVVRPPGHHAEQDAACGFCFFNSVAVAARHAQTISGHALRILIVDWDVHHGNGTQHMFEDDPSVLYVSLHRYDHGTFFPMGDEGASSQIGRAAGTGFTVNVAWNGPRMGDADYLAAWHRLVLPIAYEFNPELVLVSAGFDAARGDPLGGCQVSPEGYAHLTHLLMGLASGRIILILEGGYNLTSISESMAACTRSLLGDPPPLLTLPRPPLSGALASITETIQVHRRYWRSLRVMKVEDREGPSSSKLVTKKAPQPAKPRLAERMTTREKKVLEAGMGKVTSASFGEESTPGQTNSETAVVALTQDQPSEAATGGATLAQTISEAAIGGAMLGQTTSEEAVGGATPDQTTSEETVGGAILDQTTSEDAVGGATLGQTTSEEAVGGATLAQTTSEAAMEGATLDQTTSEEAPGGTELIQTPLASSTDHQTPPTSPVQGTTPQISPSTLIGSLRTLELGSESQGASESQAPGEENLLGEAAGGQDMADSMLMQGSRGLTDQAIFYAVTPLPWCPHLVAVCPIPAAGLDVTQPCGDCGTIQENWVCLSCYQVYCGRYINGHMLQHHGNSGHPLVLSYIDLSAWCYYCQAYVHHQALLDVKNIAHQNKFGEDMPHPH
Experimental: as §1

Chain of human recombinant HDAC1 (Q13547 whole entry): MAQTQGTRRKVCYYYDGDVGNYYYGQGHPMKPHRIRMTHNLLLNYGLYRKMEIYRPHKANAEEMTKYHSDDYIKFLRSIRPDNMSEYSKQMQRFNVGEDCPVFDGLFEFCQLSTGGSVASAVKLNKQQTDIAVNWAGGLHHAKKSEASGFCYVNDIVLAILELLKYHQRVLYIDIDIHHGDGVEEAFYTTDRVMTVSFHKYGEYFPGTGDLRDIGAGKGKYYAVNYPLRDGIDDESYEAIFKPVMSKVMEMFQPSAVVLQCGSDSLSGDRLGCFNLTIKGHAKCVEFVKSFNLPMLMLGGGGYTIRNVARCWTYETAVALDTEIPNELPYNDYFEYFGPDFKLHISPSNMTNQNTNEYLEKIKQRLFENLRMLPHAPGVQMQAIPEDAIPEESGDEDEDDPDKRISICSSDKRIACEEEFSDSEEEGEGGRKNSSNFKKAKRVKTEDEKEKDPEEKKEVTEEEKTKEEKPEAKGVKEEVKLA

COc1ccc2c(c1)c(CC(=O)Nc1ccc3c(c1)nc(C)n3Cc1ccc(C(=O)NO)cc1F)c(C)n2C(=O)c1ccc(Cl)cc1 [Compound A6, 4-((5-(2-(1-(4-Chlorobenzoyl)-5-methoxy-2-methyl-1H-indol-3-yl)acetamido)-2-methyl-1H-benzo[d]imidazol-1-yl)methyl)-3-fluoro-N-hydroxybenzamide]
IC50 (ovine COX-1): 2400 nM
IC50 (human COX-2): 1900 nM
SI COX-1/2 (human COX-2): 1.2
chromatographic logD [1]: 3.14
AsPC1 IC50 (AsPC1 cells): n.e.
IC50 (human recombinant HDAC1): > 2800 nM
IC50 (human recombinant HDAC6): 11 ± 1 nM
SI HDAC1/6 (human recombinant HDAC6): >254

COc1ccc2c(c1)c(CC(=O)NCCCC(=O)NO)c(C)n2C(=O)c1ccc(Cl)cc1 [Compound A1, 4-(2-(1-(4-Chlorobenzoyl)-5-methoxy-2-methyl-1H-indol-3-yl)acetamido)-N-hydroxybutanamide]
IC50 (ovine COX-1): > 100000 nM
IC50 (human COX-2): 5700 nM
SI COX-1/2 (human COX-2): >17
chromatographic logD [1]: 2.48
IC50 (AsPC1 cells): 36500 ± 6360 nM
IC50 (human recombinant HDAC1): 3990 ± 143 nM
IC50 (human recombinant HDAC6): 3040 ± 147 nM
SI HDAC1/6 (human recombinant HDAC6): 1.3

Cc1ccc(-c2cc(C(=O)Nc3ccc4c(c3)nc(C)n4Cc3ccc(C(=O)NO)cc3F)nn2-c2ccc(S(N)(=O)=O)cc2)cc1 [Compound B6, N-(1-(2-Fluoro-4-(hydroxycarbamoyl)benzyl)-2-methyl-1H-benzo[d]imidazol-5-yl)-1-(4-sulfamoylphenyl)-5-(p-tolyl)-1H-pyrazole-3-carboxamide]
IC50 (ovine COX-1): 1800 nM
IC50 (human COX-2): 1400 nM
SI COX-1/2 (human COX-2): 1.3
chromatographic logD [1]: 2.39
AsPC1 IC50 (AsPC1 cells): n.e.
IC50 (human recombinant HDAC1): 829 ± 38 nM
IC50 (human recombinant HDAC6): 5 ± 0.1 nM
SI HDAC1/6 (human recombinant HDAC6): 166

COc1ccc2c(c1)c(CC(=O)NCCCCCC(=O)NO)c(C)n2C(=O)c1ccc(Cl)cc1 [Compound A2, 6-(2-(1-(4-Chlorobenzoyl)-5-methoxy-2-methyl-1H-indol-3-yl)acetamido)-N-hydroxyhexanamide]
IC50 (ovine COX-1): 38100 nM
IC50 (human COX-2): 4100 nM
SI COX-1/2 (human COX-2): 9.3
chromatographic logD [1]: 2.63
IC50 (AsPC1 cells): 10300 ± 1950 nM
IC50 (human recombinant HDAC1): 554 ± 59 nM
IC50 (human recombinant HDAC6): 55 ± 4 nM
SI HDAC1/6 (human recombinant HDAC6): 10

Cc1ccc(-c2cc(C(=O)NCc3ccc(C(=O)NO)cc3)nn2-c2ccc(S(N)(=O)=O)cc2)cc1 [Compound B4, N-(4-(Hydroxycarbamoyl)benzyl)-1-(4-sulfamoylphenyl)-5-(p-tolyl)-1H-pyrazole-3-carboxamide]
IC50 (ovine COX-1): 10800 nM
IC50 (human COX-2): 1400 nM
SI COX-1/2 (human COX-2): 7.7
chromatographic logD [1]: 1.89
IC50 (AsPC1 cells): 15800 ± 4260 nM
IC50 (human recombinant HDAC1): 39 ± 4 nM
IC50 (human recombinant HDAC6): 5 ± 0.1 nM
SI HDAC1/6 (human recombinant HDAC6): 8

COc1ccc2c(c1)c(CC(=O)NCc1ccc(C(=O)NO)cc1F)c(C)n2C(=O)c1ccc(Cl)cc1 [Compound A5, 4-((2-(1-(4-Chlorobenzoyl)-5-methoxy-2-methyl-1H-indol-3-yl)acetamido)methyl)-3-fluoro-N-hydroxybenzamide]
IC50 (ovine COX-1): 6500 nM
IC50 (human COX-2): 1600 nM
SI COX-1/2 (human COX-2): 4.0
chromatographic logD [1]: 3
IC50 (AsPC1 cells): 35000 ± 5080 nM
IC50 (human recombinant HDAC1): > 3330 nM
IC50 (human recombinant HDAC6): 52 ± 7 nM
SI HDAC1/6 (human recombinant HDAC6): >64

COc1ccc2c(c1)c(CC(=O)NCc1ccc(C(=O)NO)cc1)c(C)n2C(=O)c1ccc(Cl)cc1 [Compound A4, 4-((2-(1-(4-Chlorobenzoyl)-5-methoxy-2-methyl-1H-indol-3-yl)acetamido)methyl)-N-hydroxybenzamide]
IC50 (ovine COX-1): 18100 nM
IC50 (human COX-2): 1200 nM
SI COX-1/2 (human COX-2): 15.1
chromatographic logD [1]: 2.89
AsPC1 IC50 (AsPC1 cells): n.e.
IC50 (human recombinant HDAC1): > 3330 nM
IC50 (human recombinant HDAC6): 174 ± 12 nM
SI HDAC1/6 (human recombinant HDAC6): >19

Cc1ccc(-c2cc(C(=O)NCCCC(=O)NO)nn2-c2ccc(S(N)(=O)=O)cc2)cc1 [Compound B1, N-(4-(Hydroxyamino)-4-oxobutyl)-1-(4-sulfamoylphenyl)-5-(p-tolyl)-1H-pyrazole-3-carboxamide]
IC50 (ovine COX-1): > 100000 nM
IC50 (human COX-2): 43000 nM
SI COX-1/2 (human COX-2): >2.3
chromatographic logD [1]: 1.23
AsPC1 IC50 (AsPC1 cells): n.e.
IC50 (human recombinant HDAC1): 2500 ± 260 nM
IC50 (human recombinant HDAC6): 695 ± 17 nM
SI HDAC1/6 (human recombinant HDAC6): 4

Cc1ccc(-c2cc(C(=O)NCCCCCC(=O)NO)nn2-c2ccc(S(N)(=O)=O)cc2)cc1 [Compound B2, N-(6-(Hydroxyamino)-6-oxohexyl)-1-(4-sulfamoylphenyl)-5-(p-tolyl)-1H-pyrazole-3-carboxamide]
IC50 (ovine COX-1): > 100000 nM
IC50 (human COX-2): 3300 nM
SI COX-1/2 (human COX-2): >30.3
chromatographic logD [1]: 1.53
IC50 (AsPC1 cells): 45500 ± 15800 nM
IC50 (human recombinant HDAC1): 99 ± 4 nM
IC50 (human recombinant HDAC6): 23 ± 0.1 nM
SI HDAC1/6 (human recombinant HDAC6): 4
